Columns and labels:
Plasmodium falciparum [1] = assay: Antiplasmodial activity against asexual blood-stage (ABS) CQ-sensitive Plasmodium falciparum D6 infected in human erythrocytes assessed as reduction in fluorescence measured after 72 hrs by Malaria SYBR Green I-based Fluorescence (MSF) assay; type: functional, organism-based; conditions: D6, Erythrocyte
Plasmodium falciparum [2] = assay: Antiplasmodial activity against asexual blood-stage (ABS) MDR Plasmodium falciparum Dd2 infected in human erythrocytes assessed as reduction in fluorescence measured after 72 hrs by Malaria SYBR Green I-based Fluorescence (MSF) assay; type: functional, organism-based; conditions: Dd2, Erythrocyte
Plasmodium falciparum [3] = assay: Antiplasmodial activity against asexual blood-stage (ABS) ATV-resistant clinical isolate Plasmodium falciparum Tm90-C2B infected in human erythrocytes assessed as reduction in fluorescence measured after 72 hrs by Malaria SYBR Green I-based Fluorescence (MSF) assay; type: functional, organism-based; conditions: Erythrocyte
HepG2 = assay: Cytotoxicity against human HepG2 cells assessed as cell viability measured after 48 hrs by MTT assay; type: functional, cell-based; conditions: HepG2, 48 h
Plasmodium cynomolgi [4] = assay: (§1) Antiplasmodial activity against hypnozoite Plasmodium cynomolgi B strain infected in Macaca mulatta hepatocytes incubated with sporozoite containing salivary gland homogenate obtained from dissected Anopheles dirus mosquitoes (infected with Plasmodium cynomolgi B strain) treatment started on day 4 post infection and continued daily for 4 days into fresh changed media until day 8 assessed as Liver stage (LS) activity by measuring prophylactic mode by immunofluorescent staining analysis; type: functional, organism-based; conditions: Hepatocyte
Plasmodium cynomolgi [5] = assay: as §1, with “schizont” for “hypnozoite”; type: functional, organism-based; conditions: Hepatocyte
Plasmodium cynomolgi [6] = assay: as §1, with “radical cure” for “prophylactic”; type: functional, organism-based; conditions: Hepatocyte
Plasmodium cynomolgi [7] = assay: as §1, with “schizont” for “hypnozoite”, “radical cure” for “prophylactic”; type: functional, organism-based; conditions: Hepatocyte
[8] = as §1, with “Selectivity index, ratio of CC50 for Macaca mulatta hepatocytes to IC50 for antiplasmodial” for “Antiplasmodial”; type: toxicity, cell-based; conditions: rhesus monkey, read-out: Selectivity Index
[9] = as §1, with “Selectivity index, ratio of CC50 for Macaca mulatta hepatocytes to IC50 for antiplasmodial” for “Antiplasmodial”, “schizont” for “hypnozoite”; type: toxicity, cell-based; conditions: rhesus monkey, read-out: Selectivity Index
[10] = as §1, with “Selectivity index, ratio of CC50 for Macaca mulatta hepatocytes to IC50 for antiplasmodial” for “Antiplasmodial”, “radical cure” for “prophylactic”; type: toxicity, cell-based; conditions: rhesus monkey, read-out: Selectivity Index
[11] = as §1, with “Selectivity index, ratio of CC50 for Macaca mulatta hepatocytes to IC50 for antiplasmodial” for “Antiplasmodial”, “schizont” for “hypnozoite”, “radical cure” for “prophylactic”; type: toxicity, cell-based; conditions: rhesus monkey, read-out: Selectivity Index
Plasmodium yoelii = assay: In vivo antiplasmodial activity against asexual blood-stage (ABS) Plasmodium yoelii MRA-428 infected in 4-day suppression CF1 mouse model assessed as reduction in parasitemia treated 24 hrs post infection daily measured on day 4; type: functional
[12] = Toxicity in CF1 mouse infected with asexual blood-stage (ABS) Plasmodium yoelii MRA-428 assessed as clinical toxicity at 0.3 to 30 mg/kg, po treated 24 hrs post infection measured after 4 days; type: organism-based; conditions: in vivo, dose 0.3-30 mg/kg
[13] = Toxicity in CF1 mouse infected with asexual blood-stage (ABS) Plasmodium yoelii MRA-428 assessed as behavioural change at 0.3 to 30 mg/kg, po treated 24 hrs post infection measured after 4 days; type: organism-based; conditions: in vivo, dose 0.3-30 mg/kg
Hepatocyte = assay: Cytotoxicity against Macaca mulatta hepatocytes assessed as cell viability measured after 48 hrs by MTT assay; type: toxicity, cell-based; conditions: rhesus monkey, 48 h
[14] = human, microsomes, 1 h
[15] = mouse, microsomes, 1 h

Compound | IC50 (Plasmodium falciparum [1]) [pM] | IC50 (Plasmodium falciparum [2]) [nM] | IC50 (Plasmodium falciparum [3]) [nM] | IC50 (HepG2) [nM] | IC50 (Plasmodium cynomolgi [4]) [nM] | IC50 (Plasmodium cynomolgi [5]) [nM] | IC50 (Plasmodium cynomolgi [6]) [nM] | IC50 (Plasmodium cynomolgi [7]) [nM] | selectivity ratio at 96 h [8] | selectivity ratio at 96 h [9] | selectivity ratio at 96 h [10] | selectivity ratio at 96 h [11] | ED50 (Plasmodium yoelii) [mg/kg] | ED90 (Plasmodium yoelii) [mg/kg] | Activity [12] | Activity [13] | CC50 (Hepatocyte) [nM] | t1/2 [14] [h] | CLH [15] [µL/min/mg]
O=c1c2ccc(OCc3ccc(C(F)(F)F)cc3)cc2[nH]c2cc(Cl)cc(F)c12 | 0.052 | 0.182 | 34.9 | 153000 | 640 | 140 | 910 | 810 | 3.33 | 15.2 | 2.34 | 2.63 | 0.32 | 1.42 | Non-toxic | Non-toxic | 2130 | > 1 | < 3.125
CC(C)(C)OC(=O)N1CCC(Oc2ccc3c(=O)c4c(F)cc(Cl)cc4[nH]c3c2)CC1 | 0.7 | 0.295 | 271 | 59900 | 470 | 50 | 1780 | 670 | 4.62 | 43.4 | 1.22 | 3.24 | 0.34 | 0.72 | Non-toxic | Non-toxic | 2170 | > 1 | 58.5
CC(C)(C)OC(=O)N1CCC(Oc2ccc3c(=O)c4c(F)cc(Cl)cc4[nH]c3c2)C1 (centres undefined) |  | 0.183 | 113 | > 2500 | 670 | 70 | 2480 | 960 | 18.4 | 176 | 4.96 | 12.8 | 0.1 | 0.43 | Non-toxic | Non-toxic | 12300 | > 1 | < 3.125
O=c1c2ccc(OCc3ccc(OC(F)(F)F)cc3)cc2[nH]c2cc(Cl)cc(F)c12 | 0.041 | 0.128 | 30.4 | 177000 | 470 | 80 | 470 | 280 | 1.76 | 10.4 | 1.77 | 2.96 | 0.1 | 0.55 | Non-toxic | Non-toxic | 830 | > 1 | < 3.125
O=c1c2ccc(Oc3cccc(OC(F)(F)F)c3)cc2[nH]c2cc(Cl)cc(F)c12 | 70 | 0.02 | 8.6 | > 200000 | 560 | 30 | > 20000 | 16100 | > 35.7 | > 667 |  | > 1.24 | 0.19 | 0.9 | Non-toxic | Non-toxic | > 20000 |  | 273
CCN(CC)CCCC(C)Nc1ccnc2cc(Cl)ccc12 (centres undefined) [CHLOROQUINE] |  |  |  |  |  |  |  |  |  |  |  |  |  |  | Non-toxic | Non-toxic |  |  | 

Source: ChEMBL document CHEMBL6134844, “Development of Next-Generation Antimalarial Acridones with Radical Cure Potential” (J Med Chem, 2025)
